# Laboratory results as given in PubChem BioAssay (NCI).
#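 Step 1: Grow cells in 96-well plates. Step 2: Expose to compound for 48 hours at 5 concentrations. Step 3: Interpolate endpoints linearly; if unreached, use highest concentration. GI50: concentration for 50% inhibition of growth. TGI denotes the concentration required for complete inhibition of growth.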
# Experiments:
# Test in all cases: inhibition of tumour cell growth, NCI panel, 48 h
# [1] = system: 786-0 renal
# [2] = system: A498 renal
# [3] = system: A549 NSCLC
# [4] = system: ACHN renal
# [5] = system: BT-549 breast
# [6] = system: CAKI-1 renal
# [7] = system: CCRF-CEM leukemia
# [8] = system: COLO 205 colon
# [9] = system: DU-145 prostate
# [10] = system: EKVX NSCLC
# [11] = system: HCC-2998 colon
# [12] = system: HCT-116 colon
# [13] = system: HCT-15 colon
# [14] = system: HL-60(TB) leukemia
# [15] = system: HOP-62 NSCLC
# [16] = system: HOP-92 NSCLC
# [17] = system: HS 578T breast
# [18] = system: HT29 colon
# [19] = system: IGROV1 ovarian
# [20] = system: K-562 leukemia
# [21] = system: KM12 colon
# [22] = system: LOX IMVI melanoma
# [23] = system: M14 melanoma
# [24] = system: MALME-3M melanoma
# [25] = system: MCF7 breast
# [26] = system: MDA-MB-231 breast
# [27] = system: MDA-MB-435
# [28] = system: MDA-N
# [29] = system: MOLT-4 leukemia
# [30] = system: NCI-H226 lung
# [31] = system: NCI-H23 lung
# [32] = system: NCI-H460 lung
# [33] = system: NCI-H522 lung
# [34] = system: NCI/ADR-RES ovarian
# [35] = system: OVCAR-3 ovarian
# [36] = system: OVCAR-4 ovarian
# [37] = system: OVCAR-5 ovarian
# [38] = system: PC-3 prostate
# [39] = system: RPMI-8226 leukemia
# [40] = system: RXF 393 renal
# [41] = system: SF-268 CNS
# [42] = system: SF-295 CNS
# [43] = system: SF-539 CNS
# [44] = system: SK-MEL-2 melanoma
# [45] = system: SK-MEL-28 melanoma
# [46] = system: SK-MEL-5 melanoma
# [47] = system: SK-OV-3 ovarian
# [48] = system: SN12C renal
# [49] = system: SNB-19 CNS
# [50] = system: SNB-75 CNS
# [51] = system: SR leukemia
# [52] = system: SW-620 colon
# [53] = system: T-47D breast
# [54] = system: TK-10 renal
# [55] = system: U251 CNS
# [56] = system: UACC-257 melanoma
# [57] = system: UO-31 renal
# [58] = system: DLD-1 colon
# [59] = system: DMS 114 small cell lung
# [60] = system: DMS 273 small cell lung
# [61] = system: LXFL 529 NSCLC
# [62] = system: M19-MEL melanoma
# [63] = system: SNB-78 CNS
# [64] = system: UACC-62 melanoma
# [65] = system: XF 498 CNS
smiles,measurement,setting,value
CCOC(=O)CC[C@H](N)C(=O)N[C@H](Cc1ccc(N(CCCl)CCCl)cc1)C(=O)OCC,TGI,[1],5.32 µM
same,TGI,[2],74.5 µM
same,TGI,[3],> 100 µM
same,GI50,[4],499 nM
same,TGI,[4],2680 nM
same,TGI,[5],> 38 µM
same,TGI,[6],4.03 µM
same,TGI,[7],> 100 µM
same,TGI,[8],4.26 µM
same,TGI,[9],3.77 µM
same,TGI,[10],19.1 µM
same,TGI,[11],6.21 µM
same,TGI,[12],> 36.2 µM
same,TGI,[13],10.6 µM
same,TGI,[14],38.9 µM
same,TGI,[15],13.6 µM
same,TGI,[16],3.24 µM
same,TGI,[17],6.64 µM
same,TGI,[18],13.3 µM
same,TGI,[19],9.37 µM
same,TGI,[20],> 100 µM
same,TGI,[21],15.9 µM
same,TGI,[22],> 39.1 µM
same,TGI,[23],12.9 µM
same,TGI,[24],13.9 µM
same,TGI,[25],> 47.5 µM
same,TGI,[26],16.2 µM
same,TGI,[27],> 47.7 µM
same,TGI,[28],> 43.4 µM
same,TGI,[29],31.5 µM
same,TGI,[30],> 47.7 µM
same,TGI,[31],4.29 µM
same,TGI,[32],16.2 µM
same,TGI,[33],6.76 µM
same,TGI,[34],11.3 µM
same,TGI,[35],10.1 µM
same,TGI,[36],11.2 µM
same,TGI,[37],14.7 µM
same,TGI,[38],17.7 µM
same,TGI,[39],> 73.9 µM
same,TGI,[40],3.66 µM
same,TGI,[41],11.3 µM
same,TGI,[42],23 µM
same,TGI,[43],8.83 µM
same,TGI,[44],> 28.4 µM
same,TGI,[45],> 60.7 µM
same,TGI,[46],> 100 µM
same,TGI,[47],11.7 µM
same,TGI,[48],16.7 µM
same,TGI,[49],99 µM
same,TGI,[50],5.89 µM
same,TGI,[51],> 33.6 µM
same,TGI,[52],14.1 µM
same,TGI,[53],6.55 µM
same,TGI,[54],8.51 µM
same,TGI,[55],> 33.7 µM
same,TGI,[56],> 49.2 µM
same,GI50,[57],135 nM
same,TGI,[57],281 nM
COc1ccc(/C=N/Nc2nc(C)c3c(n2)Nc2ccccc2NC3=O)cc1,TGI,[1],> 100 µM
same,TGI,[2],> 100 µM
same,TGI,[4],> 100000 nM
same,TGI,[6],> 100 µM
same,TGI,[7],> 100 µM
same,TGI,[8],> 100 µM
same,TGI,[58],> 100 µM
same,TGI,[59],> 100 µM
same,TGI,[60],> 100 µM
same,TGI,[11],> 100 µM
same,TGI,[12],> 100 µM
same,TGI,[14],> 100 µM
same,TGI,[15],> 100 µM
same,TGI,[16],> 100 µM
same,TGI,[19],> 100 µM
same,TGI,[20],> 100 µM
same,TGI,[61],> 100 µM
same,TGI,[23],> 100 µM
same,TGI,[62],> 100 µM
same,TGI,[24],> 100 µM
same,TGI,[29],> 100 µM
same,TGI,[30],> 100 µM
same,TGI,[31],> 100 µM
same,TGI,[33],> 100 µM
same,TGI,[36],> 100 µM
same,TGI,[39],> 100 µM
same,TGI,[41],> 100 µM
same,TGI,[43],> 100 µM
same,TGI,[44],> 100 µM
same,TGI,[45],> 100 µM
same,TGI,[47],> 100 µM
same,TGI,[48],> 100 µM
same,TGI,[50],> 100 µM
same,TGI,[63],> 100 µM
same,TGI,[51],> 100 µM
same,TGI,[64],> 100 µM
same,TGI,[57],> 100000 nM
same,TGI,[65],> 100 µM
